Measured values: the supplement of paper PMC10307832

Columns and labels:
Experiment in all cases: relative viability (nuclei count vs DMSO), 5 days (fraction); higher = more cells survive
Nelarabine + Palbociclib = compound: COc1nc(N)nc2c1ncn2[C@@H]1O[C@H](CO)[C@@H](O)[C@@H]1O [Nelarabine] + CC(=O)c1c(C)c2cnc(Nc3ccc(N4CCNCC4)cn3)nc2n(C2CCCC2)c1=O [Palbociclib] (partner 0.5 µM)
Outline: (§1)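 After 5 days of treatment, lung cancer cells in 1536-well plates were fixed and stained in a single step (final 0.05% Triton X-100, 1% formaldehyde, 1 ug/ml Hoechst) and their nuclei counted on 4× images. Treatment had been applied by pin tool the day after seeding as one drug alone or as a fixed anchor-drug dose with five library-drug doses (not always all listed) in √10 steps. Relative viability is the nuclei count of treated wells divided by that of vehicle wells, and values are medians of duplicate plates.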

Nelarabine + Bortezomib = compound: COc1nc(N)nc2c1ncn2[C@@H]1O[C@H](CO)[C@@H](O)[C@@H]1O [Nelarabine] + CC(C)C[C@H](NC(=O)[C@H](Cc1ccccc1)NC(=O)c1cnccn1)B(O)O [Bortezomib] (partner 0.002 µM)
Outline: as §1

Adavosertib + Alpelisib = compound: C=CCn1c(=O)c2cnc(Nc3ccc(N4CCN(C)CC4)cc3)nc2n1-c1cccc(C(C)(C)O)n1 [Adavosertib] + Cc1nc(NC(=O)N2CCC[C@H]2C(N)=O)sc1-c1ccnc(C(C)(C)C(F)(F)F)c1 [Alpelisib] (partner 2 µM)
Outline: as §1

Nelarabine + AZD7762 = compound: COc1nc(N)nc2c1ncn2[C@@H]1O[C@H](CO)[C@@H](O)[C@@H]1O [Nelarabine] + NC(=O)Nc1cc(-c2cccc(F)c2)sc1C(=O)N[C@H]1CCCNC1 [AZD7762] (partner 0.2 µM)
Outline: as §1

Row | Cell Line | relative viability (Nelarabine + Palbociclib; first compound 0.01 µM) | relative viability (Nelarabine + Palbociclib; first compound 0.03162 µM) | relative viability (Nelarabine + Palbociclib; first compound 0.1 µM) | relative viability (Nelarabine + Palbociclib; first compound 0.3162 µM) | relative viability (Nelarabine + Palbociclib; first compound 1 µM) | relative viability (Nelarabine + Bortezomib; first compound 0.01 µM) | relative viability (Nelarabine + Bortezomib; first compound 0.03162 µM) | relative viability (Nelarabine + Bortezomib; first compound 0.3162 µM) | relative viability (Nelarabine + Bortezomib; first compound 1 µM) | relative viability (Adavosertib + Alpelisib; first compound 0.01 µM) | relative viability (Adavosertib + Alpelisib; first compound 0.03162 µM) | relative viability (Adavosertib + Alpelisib; first compound 0.1 µM) | relative viability (Adavosertib + Alpelisib; first compound 0.3162 µM) | relative viability (Nelarabine + AZD7762; first compound 0.01 µM) | relative viability (Nelarabine + AZD7762; first compound 0.03162 µM) | relative viability (Nelarabine + AZD7762; first compound 0.1 µM) | relative viability (Nelarabine + AZD7762; first compound 0.3162 µM) | relative viability (Nelarabine + AZD7762; first compound 1 µM) | relative viability (Nelarabine + Bortezomib; first compound 0.1 µM)
1 | NCI-H2228 | 1.04 | 0.538 | 0.599 | 0.937 | 0.792 | 1.45 | 1.52 | 1.35 | 1.03 | 0.839 | 0.694 | 0.829 | 0.343 |  |  |  |  |  | 
2 | NCI-H1395 | 0.543 | 0.559 | 0.69 | 0.566 | 0.622 |  |  |  |  | 0.975 | 1.1 | 1.03 | 0.732 | 0.386 | 0.419 | 0.388 | 0.406 | 0.39 | 
3 | LK-2 | 1.04 |  | 0.772 | 0.835 | 0.684 |  |  |  |  | 1.03 | 1.23 | 1.14 | 1.1 | 0.408 |  | 0.289 | 0.498 | 0.309 | 
4 | NCI-H520 | 0.215 | 0.186 | 0.236 | 0.261 | 0.168 | 0.67 | 0.552 | 0.542 | 0.529 | 0.884 | 0.887 | 1.03 | 0.717 |  |  |  |  |  | 0.696
5 | EBC-1 |  |  |  |  |  | 0.559 | 0.525 | 0.55 | 0.549 | 0.98 | 0.843 | 0.921 | 0.81 |  |  |  |  |  | 0.548
6 | NCI-H1944 | 0.367 | 0.267 | 0.343 | 0.362 | 0.316 |  |  |  |  | 0.822 | 0.774 | 0.645 | 0.666 | 0.534 | 0.4 | 0.421 | 0.44 | 0.485 | 
7 | A549 |  |  |  |  |  |  |  |  |  | 0.813 | 0.896 | 0.957 | 0.804 |  |  |  |  |  | 
8 | NCI-H2342 | 0.557 | 0.463 | 0.529 | 0.521 | 0.554 |  |  |  |  |  |  |  |  | 0.508 | 0.5 | 0.439 | 0.555 | 0.464 | 
9 | SK-LU-1 | 0.456 | 0.276 | 0.352 | 0.376 | 0.377 | 1.56 | 1.02 | 1.1 | 1.13 | 1.04 | 1.01 | 0.656 | 0.291 |  |  |  |  |  | 1.61
10 | NCI-H1650 | 0.255 | 0.317 | 0.337 | 0.32 | 0.266 | 0.173 | 0.213 | 0.196 | 0.233 |  |  |  |  |  |  |  |  |  | 0.231
11 | NCI-H1299 |  |  |  |  |  | 1.08 | 1.09 | 1.06 | 1.01 | 1.06 | 0.979 | 1.07 | 0.997 |  |  |  |  |  | 1.05
12 | NCI-H2023 | 0.321 | 0.369 | 0.348 | 0.336 | 0.302 | 1.28 | 1.08 | 1.04 | 0.934 | 0.512 | 0.602 | 0.548 | 0.39 |  |  |  |  |  | 0.864
13 | NCI-H522 | 1.16 | 1.07 | 0.957 | 0.947 | 1.02 |  |  |  |  |  |  |  |  | 0.844 | 1.02 | 0.813 | 0.86 | 0.949 | 
